Structures are written as SMILES. ± gives the expanded uncertainty stated by the source.

The record followed here is the NIST ThermoML archive (doi:10.1021/je800945e).

For the data set the following is noted: Crystal; visual observation.

Turning to `Nc1cccnc1` [β-aminopyridine], the Normal melting temperature came out at 64.50 ± 0.5 °C.
